Experimental data published in ChEMBL document CHEMBL1201862, “PubChem BioAssay data set” (2004).
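Growth conditions: 96-well plates. Treatment: test compound, 48 hours, 5 concentrations. Analysis: linear interpolation between bracketing concentrations; unreached endpoints set to highest concentration. Abbreviation: GI50, concentration required for 50% inhibition of growth.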 Activity calls are given as the source filed them. No stated cut-off is given here; in the data, active = GI50 up to about 1.1 µM and inactive = higher.

Tests used:
Assay in all cases: NCI-60 cell line screen, 48 h
[1] = tested on: NCI-H23
[2] = tested on: DMS-273
[3] = tested on: NCI-H522
[4] = tested on: RPMI-8226
[5] = tested on: CCRF-CEM
[6] = tested on: TK-10
[7] = tested on: XF498
[8] = tested on: COLO 205
[9] = tested on: SF-268
[10] = tested on: OVCAR-8
[11] = tested on: SK-MEL-5
[12] = tested on: SW-620
[13] = tested on: SF-295
[14] = tested on: K562
[15] = tested on: A549
[16] = tested on: HOP-62
[17] = tested on: A498
[18] = tested on: OVCAR-4
[19] = tested on: UACC-62
[20] = tested on: LOX IMVI
[21] = tested on: IGROV-1
[22] = tested on: HCT-116
[23] = tested on: HL-60
[24] = tested on: EKVX
[25] = tested on: RXF 393
[26] = tested on: OVCAR-3
[27] = tested on: KM12
[28] = tested on: CAKI-1
[29] = tested on: SF-539
[30] = tested on: DMS-114
[31] = tested on: HCC 2998
[32] = tested on: RXF 631
[33] = tested on: SNB-75
[34] = tested on: M19-MEL
[35] = tested on: SN12C
[36] = tested on: SK-OV-3
[37] = tested on: UO-31
[38] = tested on: DLD-1
[39] = tested on: UACC-257
[40] = tested on: HOP-92
[41] = tested on: SK-MEL-2
[42] = tested on: LXFL 529
[43] = tested on: Malme-3M
[44] = tested on: NCI-H460
[45] = tested on: HT-29
[46] = tested on: SNB-19
[47] = tested on: 786-0
[48] = tested on: M14
[49] = tested on: SK-MEL-28
[50] = tested on: MOLT-4
[51] = tested on: U-251
[52] = tested on: HCT-15
[53] = tested on: SNB-78
[54] = tested on: SR
[55] = tested on: KM-20L2
[56] = tested on: OVCAR-5
[57] = tested on: NCI-H226

With `C[C@]12CCC(=O)CC1CCCC2=O` (some centres undefined) the GI50 [1] was > 100 µM (inactive), the GI50 [2] was > 100 µM (inactive) and the GI50 [3] was > 100 µM (inactive). For the same molecule, the GI50 [4] was > 100 µM (inactive), the GI50 [5] was > 100 µM (inactive) and the GI50 [6] was > 100 µM (inactive). For the same molecule, the GI50 [7] was > 100 µM (inactive), the GI50 [8] was > 100 µM (inactive) and the GI50 [9] was > 100 µM (inactive). The GI50 [10] was > 100 µM (inactive), the GI50 [11] was > 100 µM (inactive) and the GI50 [12] was > 100 µM (inactive). The GI50 [13] was > 100 µM (inactive), the GI50 [14] was > 100 µM (inactive) and the GI50 [15] was > 100 µM (inactive). For the same molecule, the GI50 [16] was > 100 µM (inactive), the GI50 [17] was > 100 µM (inactive) and the GI50 [18] was > 100 µM (inactive). For the same molecule, the GI50 [19] was > 100 µM (inactive), the GI50 [20] was > 100 µM (inactive) and the GI50 [21] was > 100 µM (inactive). The GI50 [22] was > 100 µM (inactive), the GI50 [23] was > 100 µM (inactive) and the GI50 [24] was > 100 µM (inactive). The GI50 [25] was > 100 µM (inactive), the GI50 [26] was > 100 µM (inactive) and the GI50 [27] was > 100 µM (inactive). The GI50 [28] was > 100 µM (inactive), the GI50 [29] was > 100 µM (inactive) and the GI50 [30] was > 100 µM (inactive). For the same molecule, the GI50 [31] was > 100 µM (inactive), the GI50 [32] was > 100 µM (inactive) and the GI50 [33] was > 100 µM (inactive). For the same molecule, the GI50 [34] was > 100 µM (inactive), the GI50 [35] was > 100 µM (inactive) and the GI50 [36] was > 100 µM (inactive). The GI50 [37] was > 100 µM (inactive), the GI50 [38] was > 100 µM (inactive) and the GI50 [39] was > 100 µM (inactive). For the same molecule, the GI50 [40] was > 100 µM (inactive), the GI50 [41] was > 100 µM (inactive) and the GI50 [42] was > 100 µM (inactive). The GI50 [43] was > 100 µM (inactive), the GI50 [44] was > 100 µM (inactive) and the GI50 [45] was > 100 µM (inactive). For the same molecule, the GI50 [46] was > 100 µM (inactive), the GI50 [47] was > 100 µM (inactive) and the GI50 [48] was > 100 µM (inactive). The GI50 [49] was > 100 µM (inactive), the GI50 [50] was > 100 µM (inactive) and the GI50 [51] was > 100 µM (inactive). For the same molecule, the GI50 [52] was over 100 µM and the GI50 [53] was > 100 µM (inactive).
`CC1(C)OC(=O)C(C#N)=C1/C=C/c1coc2ccc(Cl)cc2c1=O` was tested, and the GI50 [54] was 31.5 µM (inactive), the GI50 [1] was 21 µM (inactive) and the GI50 [2] was 35.1 µM (inactive). The GI50 [3] was 74 µM (inactive), the GI50 [4] was 26.9 µM (inactive) and the GI50 [5] was 17.7 µM (inactive). The GI50 [8] was 57.7 µM (inactive), the GI50 [9] was 29.5 µM (inactive) and the GI50 [10] was 25.7 µM (inactive). For the same molecule, the GI50 [11] was 21.9 µM (inactive), the GI50 [12] was 39.2 µM (inactive) and the GI50 [13] was 29.8 µM (inactive). The GI50 [14] was 27.5 µM (inactive), the GI50 [15] was 45.7 µM (inactive) and the GI50 [16] was 23.7 µM (inactive). For the same molecule, the GI50 [18] was 24.6 µM (inactive), the GI50 [19] was 31.7 µM (inactive) and the GI50 [20] was 18.9 µM (inactive). The GI50 [21] was 58.3 µM (inactive), the GI50 [22] was 33 µM (inactive) and the GI50 [24] was 47 µM (inactive). The GI50 [26] was 18.4 µM (inactive), the GI50 [27] was 41.3 µM (inactive) and the GI50 [28] was 10.8 µM (inactive). The GI50 [29] was > 10 µM (inactive), the GI50 [30] was 34.8 µM (inactive) and the GI50 [31] was 34.8 µM (inactive). For the same molecule, the GI50 [32] was 38.8 µM (inactive), the GI50 [33] was 14.9 µM (inactive) and the GI50 [34] was 41.2 µM (inactive). The GI50 [35] was 30.1 µM (inactive), the GI50 [36] was 19.4 µM (inactive) and the GI50 [37] was 27.1 µM (inactive). For the same molecule, the GI50 [55] was 42.2 µM (inactive), the GI50 [38] was 23.1 µM (inactive) and the GI50 [39] was 31.3 µM (inactive). For the same molecule, the GI50 [56] was 45.1 µM (inactive), the GI50 [41] was 22.1 µM (inactive) and the GI50 [42] was 27.9 µM (inactive). For the same molecule, the GI50 [57] was 29.4 µM (inactive), the GI50 [43] was 26.2 µM (inactive) and the GI50 [44] was 18.8 µM (inactive). For the same molecule, the GI50 [45] was > 10 µM (inactive), the GI50 [46] was 30.4 µM (inactive) and the GI50 [47] was 37.2 µM (inactive). The GI50 [48] was 35.6 µM (inactive), the GI50 [49] was 47.5 µM (inactive) and the GI50 [50] was 26.1 µM (inactive). The GI50 [51] was 34.4 µM (inactive), the GI50 [52] was 27.4 µM and the GI50 [53] was 33.8 µM (inactive).
